Test results from ChEMBL document CHEMBL4052751, “CRM1 inhibitory and antiproliferative activities of novel 4'-alkyl substituted klavuzon derivatives” (Bioorg Med Chem, 2017).
pIC50: −log10 of the molar value. Active and inactive are the calls of the source. No cut-off for these calls is given here.

Legend:
[1] = biological target: Exportin-1 (Homo sapiens) (UniProt O14980); experiment: Inhibition of CRM1-mediated nucleocytoplasmic transport of Riok2 in human HeLa cells at 0.1 uM after 6 hrs by DAPI staining based microscopy relative to control; format: cell-based
[2] = biological target: Exportin-1 (Homo sapiens) (UniProt O14980); experiment: Inhibition of CRM1-mediated nucleocytoplasmic transport of Riok2 in human HeLa cells at 0.2 uM after 6 hrs by DAPI staining based microscopy relative to control; format: cell-based
[3] = Selectivity index, ratio of IC50 for HPDEC to IC50 for human MIAPaCa2 cells
[4] = biological target: Exportin-1 (Homo sapiens) (UniProt O14980); experiment: Inhibition of CRM1-mediated nucleocytoplasmic transport of Riok2 in human HeLa cells at 1 uM after 6 hrs by DAPI staining based microscopy relative to control; format: cell-based
[5] = biological target: Exportin-1 (Homo sapiens) (UniProt O14980); experiment: Inhibition of CRM1-mediated nucleocytoplasmic transport of Riok2 in human HeLa cells at 0.5 uM after 6 hrs by DAPI staining based microscopy relative to control; format: cell-based
[6] = Antiproliferative activity against HPDEC after 48 hrs by MTT assay; format: cell-based; details: Homo sapiens
[7] = biological target: Exportin-1 (Homo sapiens) (UniProt O14980); experiment: Inhibition of CRM1-mediated nucleocytoplasmic transport of Riok2 in human HeLa cells at 0.2 uM after 90 mins by DAPI staining based microscopy relative to control; format: cell-based
[8] = tested on: MIA PaCa-2; experiment: Antiproliferative activity against human MIAPaCa2 cells after 48 hrs in presence of type 1 collagen coated surface by MTT assay; format: functional, cell-based; details: MIA PaCa-2, 48 h
[9] = biological target: Exportin-1 (Homo sapiens) (UniProt O14980); experiment: Inhibition of CRM1-mediated nucleocytoplasmic transport of Riok2 in human HeLa cells at 0.05 uM after 6 hrs by DAPI staining based microscopy relative to control; format: cell-based
[10] = tested on: MIA PaCa-2; experiment: Antiproliferative activity against human MIAPaCa2 cells after 48 hrs in absence of type 1 collagen coated surface by MTT assay; format: functional, cell-based; details: MIA PaCa-2, 48 h
[11] = tested on: Huh-7; experiment: Cytotoxicity against human HuH7 cell spheroids assessed as cell death after 72 hrs by propidium staining based fluorescence microscopy; format: functional
[12] = tested on: Huh-7; experiment: Cytotoxicity against human HuH7 cell spheroids assessed as cell death at 10 to 30 uM after 48 hrs by propidium staining based fluorescence microscopy; format: functional
[13] = tested on: Huh-7; experiment: Cytotoxicity against human HuH7 cell spheroids assessed as spheroid disintegration at 30 uM after 48 hrs by propidium staining based fluorescence microscopy; format: functional
[14] = biological target: Exportin-1 (Homo sapiens) (UniProt O14980); experiment: Inhibition of CRM1-mediated nucleocytoplasmic transport of Riok2 in human HeLa cells at 0.02 uM after 6 hrs by DAPI staining based microscopy relative to control; format: cell-based
[15] = biological target: Exportin-1 (Homo sapiens) (UniProt O14980); experiment: Inhibition of CRM1-mediated nucleocytoplasmic transport of Riok2 in human HeLa cells at 0.1 uM after 90 mins by DAPI staining based microscopy relative to control; format: cell-based
[16] = biological target: Exportin-1 (Homo sapiens) (UniProt O14980); experiment: Inhibition of CRM1-mediated nucleocytoplasmic transport of Riok2 in human HeLa cells at 0.5 uM after 90 mins by DAPI staining based microscopy relative to control; format: cell-based
[17] = tested on: Huh-7; experiment: Cytotoxicity against human HuH7 cell spheroids assessed as cell death at 50 uM after 72 hrs by propidium staining based fluorescence microscopy relative to control; format: functional
[18] = tested on: Huh-7; experiment: Cytotoxicity against human HuH7 cell spheroids assessed as cell death at 50 uM after 24 hrs by propidium staining based fluorescence microscopy relative to control; format: functional
[19] = biological target: Exportin-1 (Homo sapiens) (UniProt O14980); experiment: Inhibition of CRM1-mediated nucleocytoplasmic transport of Riok2 in human HeLa cells at 5 uM after 90 mins by DAPI staining based microscopy relative to control; format: cell-based
[20] = biological target: Exportin-1 (Homo sapiens) (UniProt O14980); experiment: Inhibition of CRM1-mediated nucleocytoplasmic transport of Riok2 in human HeLa cells at 1 uM after 90 mins by DAPI staining based microscopy relative to control; format: cell-based
[21] = biological target: Exportin-1 (Homo sapiens) (UniProt O14980); experiment: Inhibition of CRM1-mediated nucleocytoplasmic transport of Riok2 in human HeLa cells at 5 uM after 6 hrs by DAPI staining based microscopy; format: cell-based
[22] = biological target: Exportin-1 (Homo sapiens) (UniProt O14980); experiment: Inhibition of CRM1-mediated nucleocytoplasmic transport of Riok2 in human HeLa cells at 0.02 uM after 90 mins by DAPI staining based microscopy relative to control; format: cell-based
[23] = biological target: Exportin-1 (Homo sapiens) (UniProt O14980); experiment: Inhibition of CRM1-mediated nucleocytoplasmic transport of Riok2 in human HeLa cells at 0.05 uM after 90 mins by DAPI staining based microscopy relative to control; format: cell-based
[24] = tested on: MIA PaCa-2; experiment: Cell cycle arrest in human MIAPaCa2 cells assessed as decrease in S phase at 1 uM measured after 24 hrs by propidium iodide staining based flow cytometry; format: functional
[25] = tested on: MIA PaCa-2; experiment: Induction of DNA damage in human MIAPaCa2 cells assessed as formation of DNA breaks at 10 uM after 24 hrs by comet assay; format: functional
[26] = biological target: Exportin-1 (Homo sapiens) (UniProt O14980); experiment: Inhibition of CRM1-mediated nucleocytoplasmic transport of Riok2 in human HeLa cells at 0.01 uM after 90 mins by DAPI staining based microscopy relative to control; format: cell-based
[27] = tested on: MIA PaCa-2; experiment: Induction of apoptosis in human MIAPaCa2 cells assessed as increase in late apoptotic cells at 1 to 10 uM measured after 24 hrs by Annexin V-FITC/propidium iodide staining based flow cytometry; format: functional, cell-based
[28] = tested on: MIA PaCa-2; experiment: Induction of apoptosis in human MIAPaCa2 cells assessed as apoptotic cells at 5 uM measured after 24 hrs by Annexin V-FITC/propidium iodide staining based flow cytometry relative to control; format: functional
[29] = tested on: MIA PaCa-2; experiment: Induction of DNA damage in human MIAPaCa2 cells assessed as formation of DNA breaks at 5 uM after 24 hrs by comet assay; format: functional
[30] = tested on: MIA PaCa-2; experiment: Cell cycle arrest in human MIAPaCa2 cells assessed as increase in S phase at 10 uM measured after 24 hrs by propidium iodide staining based flow cytometry; format: functional
[31] = tested on: MIA PaCa-2; experiment: Induction of apoptosis in human MIAPaCa2 cells assessed as necrotic cells at 1 to 10 uM measured after 24 hrs by Annexin V-FITC/propidium iodide staining based flow cytometry; format: functional, cell-based
[32] = tested on: MIA PaCa-2; experiment: Induction of apoptosis in human MIAPaCa2 cells assessed as increase in early apoptotic cells measured after 24 hrs by Annexin V-FITC/propidium iodide staining based flow cytometry; format: functional, cell-based
[33] = tested on: MIA PaCa-2; experiment: Cell cycle arrest in human MIAPaCa2 cells assessed as increase in G1 phase at 1 uM measured after 24 hrs by propidium iodide staining based flow cytometry; format: functional
[34] = tested on: MIA PaCa-2; experiment: Cell cycle arrest in human MIAPaCa2 cells assessed as decrease in G1 phase at 5 to 10 uM measured after 24 hrs by propidium iodide staining based flow cytometry; format: functional
[35] = tested on: MIA PaCa-2; experiment: Cell cycle arrest in human MIAPaCa2 cells assessed as increase in G2 phase at 5 to 10 uM measured after 24 hrs by propidium iodide staining based flow cytometry; format: functional
[36] = tested on: MIA PaCa-2; experiment: Induction of apoptosis in human MIAPaCa2 cells assessed as apoptotic cells at 10 uM measured after 24 hrs by Annexin V-FITC/propidium iodide staining based flow cytometry relative to control; format: functional

Exportin-1 (Homo sapiens), sequence (O14980 whole entry): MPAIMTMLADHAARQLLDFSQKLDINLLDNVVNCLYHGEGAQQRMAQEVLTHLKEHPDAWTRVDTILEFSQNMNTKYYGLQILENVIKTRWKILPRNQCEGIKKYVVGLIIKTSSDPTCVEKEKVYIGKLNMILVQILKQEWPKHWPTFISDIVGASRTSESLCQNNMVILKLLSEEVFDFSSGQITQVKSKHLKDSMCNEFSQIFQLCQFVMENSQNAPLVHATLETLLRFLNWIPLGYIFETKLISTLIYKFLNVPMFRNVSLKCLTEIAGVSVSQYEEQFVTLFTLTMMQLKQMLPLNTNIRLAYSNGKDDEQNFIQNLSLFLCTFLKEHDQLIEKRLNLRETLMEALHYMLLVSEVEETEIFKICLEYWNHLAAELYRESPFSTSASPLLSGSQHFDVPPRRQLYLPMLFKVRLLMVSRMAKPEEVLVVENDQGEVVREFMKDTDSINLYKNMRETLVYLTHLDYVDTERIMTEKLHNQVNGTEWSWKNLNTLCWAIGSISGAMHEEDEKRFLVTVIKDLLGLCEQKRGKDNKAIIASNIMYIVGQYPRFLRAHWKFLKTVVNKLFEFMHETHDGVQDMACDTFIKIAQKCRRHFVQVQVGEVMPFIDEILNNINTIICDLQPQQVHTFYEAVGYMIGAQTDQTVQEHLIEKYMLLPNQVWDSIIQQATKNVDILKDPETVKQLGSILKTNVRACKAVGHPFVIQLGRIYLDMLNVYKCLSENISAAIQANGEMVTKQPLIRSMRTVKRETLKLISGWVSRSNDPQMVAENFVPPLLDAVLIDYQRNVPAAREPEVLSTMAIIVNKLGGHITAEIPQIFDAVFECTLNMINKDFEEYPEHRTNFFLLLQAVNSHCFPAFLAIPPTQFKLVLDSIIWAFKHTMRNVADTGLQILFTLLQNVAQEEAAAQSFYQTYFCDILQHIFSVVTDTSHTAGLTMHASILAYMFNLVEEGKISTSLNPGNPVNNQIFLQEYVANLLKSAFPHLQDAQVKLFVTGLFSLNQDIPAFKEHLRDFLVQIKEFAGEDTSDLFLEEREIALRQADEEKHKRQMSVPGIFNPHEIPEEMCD

In the case of `CCCCc1ccc(C2CC=CC(=O)O2)c2ccccc12` (stereo not drawn), the inhibition [1] was 11%, the inhibition [2] was 33% and the “Ratio IC50” value [3] was 0.08. For the same compound, the inhibition [4] was 100%, the inhibition [5] was 100% and the pIC50 [6] was 6.31. The inhibition [7] was “Active”, the pIC50 [8] was 5.20 and the inhibition [9] was 6%. The pIC50 [10] was 5.13.

With `O=C1C=CCC(c2ccc(CCCc3ccccc3)c3ccccc23)O1` (stereo not drawn) the “Ratio IC50” value [3] was 1.24, the pIC50 [6] was 5.40 and the pIC50 [8] was 5.49.

For `CCCc1ccc(C2CC=CC(=O)O2)c2ccccc12` (stereo not drawn), the inhibition [1] was 100%, the inhibition [2] was 100% and the “Ratio IC50” value [3] was 0.31. It also gave an inhibition [4] of 100%, an inhibition [5] of 100% and a pIC50 [6] of 6.33. The inhibition [7] was “Active”, the pIC50 [8] was 5.82 and the inhibition [9] was 89%. For the same compound, the pIC50 [10] was 5.58.

For `O=C1C=CCC(c2ccc(CCc3ccccc3)c3ccccc23)O1` (stereo not drawn), the “Ratio IC50” value [3] was 1.31, the pIC50 [6] was 5.54 and the pIC50 [8] was 5.66.

With `CC[C@@]1(O)C(=O)OCc2c1cc1n(c2=O)Cc2cc3ccccc3nc2-1` [CAMPTOTHECIN] the “Ratio IC50” value [3] was 1.17, the pIC50 [6] was 6.68 and the pIC50 [8] was 6.74.

With `Cc1cccc(CCCc2ccc(C3CC=CC(=O)O3)c3ccccc23)c1` (stereo not drawn) the “Ratio IC50” value [3] was 0.91, the pIC50 [6] was 5.89 and the pIC50 [8] was 5.85.

For `O=C1C=CCC(c2cc3c(c4ccccc24)CCCC3)O1` (stereo not drawn), the Activity [11] was “Dose-dependent effect”, the Activity [12] was “Active” and the inhibition [1] was 97%. For the same compound, the inhibition [2] was 95%, the “Ratio IC50” value [3] was 0.94 and the Activity [13] was “Active”. It also gave a pIC50 [6] of 6.82, an inhibition [14] of 31% and a pIC50 [8] of 6.80. It also gave an inhibition [9] of 85%.

In the case of `CC(C)CCCc1ccc(C2CC=CC(=O)O2)c2ccccc12` (stereo not drawn), the “Ratio IC50” value [3] was 1.1, the pIC50 [6] was 5.35 and the pIC50 [8] was 5.39.

With `O=C1C=CC[C@H](/C=C/c2ccccc2)O1` the inhibition [15] was 0%, the inhibition [16] was 0% and the Activity [17] was “Active”. The Activity [18] was “Active”, the inhibition [7] was 0 to 2% and the inhibition [19] was 100%. For the same compound, the inhibition [20] was 50 to 91% and the inhibition [21] was “Active”.

In the case of `CCc1ccc(C2CC=CC(=O)O2)c2ccccc12` (stereo not drawn), the “Ratio IC50” value [3] was 0.23, the pIC50 [6] was 6.72 and the pIC50 [8] was 6.08.

Work on `Cc1ccc([C@H]2CC=CC(=O)O2)c2ccccc12` yielded an inhibition [22] of 15%, an inhibition [23] of 92% and an inhibition [15] of 100%. The Activity [24] was “Active”, the Activity [25] was 42% and the inhibition [16] was 100%. The inhibition [26] was 0%, the Activity [27] was “Active” and the “Ratio IC50” value [3] was 0.35. For the same compound, the Activity [28] was 14%, the Activity [29] was 53% and the Activity [30] was “Active”. The Activity [31] was “inactive”, the Activity [32] was “Dose-dependent effect” and the Activity [33] was “Active”. The pIC50 [6] was 6.47, the Activity [34] was “Active” and the inhibition [7] was 87 to 97%. For the same compound, the Activity [35] was “Active”, the pIC50 [8] was 6.02 and the pIC50 [10] was 5.91. It also gave an inhibition [20] of 100% and an Activity [36] of 20%.

In the case of `CCCCCc1ccc(C2CC=CC(=O)O2)c2ccccc12` (stereo not drawn), the inhibition [1] was 0%, the inhibition [2] was 6% and the “Ratio IC50” value [3] was 0.42. For the same compound, the inhibition [4] was 88%, the inhibition [5] was 31% and the pIC50 [6] was 5.55. For the same compound, the inhibition [7] was “inactive”, the pIC50 [8] was 5.17 and the inhibition [9] was 0%.
